Test results reported in patent US20110045065A1, “SUBSTANCE HAVING ANTIOXIDANT, GEROPROTECTIVE AND ANTI-ISCHEMIC ACTIVITY AND METHOD FOR THE PREPARATION THEREOF” (priority 2005, published 2011).
“And” between values parts separate entries of the source, which are not always exact repeats. Identical values can stand only once. “Also recorded” adds a separate entry of the source.

Assays:
[1] = tested on: external segments of photoreceptor cells; experiment: Ascorbate-induced peroxidation of external segments of photoreceptor cells; assay type: biochemical, pig
Source text: The external segments of photoreceptor cells are obtained from pig retinas according to standard procedure, using methods of differential centrifuging in a saccharose density gradient. […] Subsequently, the process was stopped by 15% trichloroacetic acid, and the concentration of TBK-active products has been determined. Samples being free of compound Ic were used as a control.
In these experiments a comparison of the speed of ascorbate-induced peroxidation of external segments of photoreceptor cells of pig eyes has been carried out, said comparison being determined with respect to the accumulation of TBK-active products in the presence of different compound I salts.

[2] = Antiradical activity by chemiluminescence (rate constant k7); assay type: physicochemical
Method: The efficiency of 3-hydroxypyridine derivatives as inhibitors of free radical reactions was determined by hemiluminescent method by means of measurement of speed constants of their reaction with ethyl-benzene k7 peroxide radicals.
The measurements of intensity of chemiluminescence (HL) have been carried out with an apparatus CNK-7, designed and made by IHF RAN USSR. A photomultiplier FAU-38 is used as an optical receiver. The fixed concentration of radicals during oxidation of […] (cumole) is controlled by an initiator being azo-bis-isobutyronitrile.
In order to increase HL emission the activator chelate Eu (europium tristenoyl triphtoroacetonate with 1,10-phenatroline) has been used that has allowed to conduct measurements at low speed values of radical initiation (W1=10^−8-10^−9 mol/I.s.) and, therefore, at small amounts of added sample. A weighed amount of samples studied was diluted in an suitable solvent (chlorobenzene or acetonitrile) and a small amount of the prepared solution (0.1-0.25 ml) was added to the reaction mixture (5-6 ml), arranged in a temperature-controlled reaction vessel of the HL-device. The change of emission intensity was recorded.

traumatic hemophthalmia = experiment: Experimental traumatic hemophthalmia: preclinical and ultrasonic examination; assay type: in vivo, chinchilla rabbits; conditions: for Capability of ophthalmoscopy and eyeground: 3-point scale, 0 impossible, 3 details clearly visible; for Density of hemophthalmia: 100 SUD = ultrasonic sclera density; for Area of hemophthalmia / Volume of a hemophthalmia: parabulbar 0.5 ml of 1% solution daily
Method: Studies were carried out in 12 chinchilla rabbits having body weight 2.0-2.5 kg. A traumatic hemophthalmia was modeled by introduction of 0.5 to 0.7 ml of autoblood into a vitreous body through a puncture in a sclera on distance of 5 mm from a limbus, under a local anaesthesia. The basic group made with 6 rabbits (12 eyes), daily received a formulation prepared in accordance with the present invention parabulbarly (0.5 ml of 1% solution). A control group presented by 6 animals (12 eyes), daily received parabulbar emoxipin (2-ethyl-6-methyl-3-hydroxypiridin) in the same dosage. Treatment was carried out within 14 days after a trauma.
Besides the traditional ophthalmologic examination such as biomicroscopy, direct and indirect ophthalmoscopy, all the animals passed through ultrasonic scanning of an eye by means of the device “Voluson 730” (“Kretz”). The studies were carried out on the 1, 3, 7, 10 and 14th day of the experiment. For the estimation of efficiency of the treatment following tests were used: density, area, volume of a hemophthalmia and opportunity (possibility) of ophthalmoscopy of an eye ground. Density of a hemophthalmia was estimated in standard (conventional) units of density (SUD), 100 SUD were accepted for the maximal value, corresponding to the ultrasonic sclera density. Depending on the degree of acoustic density of a hemophthalmia, a high (100-50 SUD), medium (50-25 SUD) and low (less than 25 SUD) densities were distinguished. To determine the hemophthalmia the area measurement in sm^2 was used. The volume of the intraocular hemorrhage was studied with the help of 3D modelling in the B-regimen of a grey scale and measurement in sm^3.
At the ultrasonic examination of the intact rabbit's eyes, the average volume of vitreous body (1.0±0.9 sm^3) and the average area of a vitreous body (1.04±0.8 sm^2) were fixed. Proceeding from the obtained data, the total hemophthalmia (from 100 up to 50% of the vitreous body volume) was equated to the volume of 0.5-1.0 sm^3 and of 0.5-1.0 sm^2, a wide-spread hemophthalmia (50-25% of volume of a vitreous) corresponded to the area of 0.5-0.25 sm^3, both 0.5-0.25 sm^2, and the partial hemophthalmia occupied up to 0.25 sm^3 and 0.25 sm^2 (up to 25% of the vitreous volume).
Capability of the eyeground ophthalmoscopy was estimated by a 3-mark(point) scale depending on the image sharpness (0—ophthalmoscopy is impossible (not capable), 3—details of an eyeground are clearly visible).

[3] = tested on: lipofuscin induced cardiolipin photoperoxidation; experiment: Inhibition of lipofuscin induced cardiolipin liposome photoperoxidation; assay type: biochemical, human; conditions: for Concentration of TBK-active products / Inhibition: 2 mM compound; for Inhibiting / protective effect regarding phototoxic action of lipofuscin granules: result in words
Method: Liposomes are prepared from methanolic solution of cardiolipin (initial concentration: 5 mg/ml) by evaporation of methanol and solubilization of cardiolipin in a phosphate buffer. A mixture comprising a suspension of liposomes and lipofuscin granules, isolated from tissue of a retinal pigmentary epithelium of a human eye, is subjected to irradiation with intensive blue light under constant stirring. Concentration of lipid peroxidation products (TBK-active products) is determined after 20, 40, 60 and 90 minutes. The experimental sample contained 2 mM of a solution of compound Ic, or 2 mM of a solution of mexydole.

**Q.** Which results are given for “2,4,6-trimethyl-3-oxypyridine succinate [Compound Ic]”?
**A.** Speed of accumulation of TBK-active products for 30 min of reacting ([1]; compound 43 mM): 0.05 nmol/mg; Inhibition ([1]; compound 43 mM, 30 min of reacting): 93.5%; Inhibition ([1]; response time 15 min, 17 mM compound, 0.5 mM ascorbic acid): 49.6%; Inhibition ([1]; response time 30 min, 17 mM compound, 0.5 mM ascorbic acid): 32.3%; Antiradical activity in comparison with mexydole ([2]; result in words): two times higher antiradical activity; k7 × 10^−4 ([2]; speed constant of reaction with ethyl-benzene peroxide radicals): 9.5 l/mol × sec; Capability of ophthalmoscopy and eyeground (traumatic hemophthalmia; 1st day): 1.5 points; Density of hemophthalmia (traumatic hemophthalmia; 1st day): 84 ± 2.4 SUD; Area of hemophthalmia (traumatic hemophthalmia; 1st day): 0.49 ± 0.7 sm^2; Volume of a hemophthalmia (traumatic hemophthalmia; 1st day): 0.53 ± 0.4 sm^3; Capability of ophthalmoscopy and eyeground (traumatic hemophthalmia; 3rd day): 0-0.5 points; Density of hemophthalmia (traumatic hemophthalmia; 3rd day): 72 ± 3.1 SUD; Area of hemophthalmia (traumatic hemophthalmia; 3rd day): 0.74 ± 0.9 sm^2; Volume of a hemophthalmia (traumatic hemophthalmia; 3rd day): 0.78 ± 0.2 sm^3; Capability of ophthalmoscopy and eyeground (traumatic hemophthalmia; 7th day): 1.5 points; Density of hemophthalmia (traumatic hemophthalmia; 7th day): 49±1.4 SUD; Area of hemophthalmia (traumatic hemophthalmia; 7th day): 0.47 ± 0.4 sm^2; Volume of a hemophthalmia (traumatic hemophthalmia; 7th day): 0.51 ± 0.6 sm^3; Capability of ophthalmoscopy and eyeground (traumatic hemophthalmia; 10th day): 2.2 points; Density of hemophthalmia (traumatic hemophthalmia; 10th day): 23±1.1 SUD; Hemophthalmia completely resolved (traumatic hemophthalmia; 10th day, group of 6 rabbits): two animals; Area of hemophthalmia (traumatic hemophthalmia; 10th day): 0.24±0.1 sm^2 and 0.2 ± 0.1 sm^2; Volume of a hemophthalmia (traumatic hemophthalmia; 10th day): 0.2±0.1 sm^3 and 0.24 ± 0.1 sm^3; Hemophthalmia completely resolved (traumatic hemophthalmia; 14th day): 50 % of animals; Capability of ophthalmoscopy and eyeground (traumatic hemophthalmia; 14th day): 2.8 points; Density of hemophthalmia (traumatic hemophthalmia; 14th day): 13±0.6 SUD; Area of hemophthalmia (traumatic hemophthalmia; 14th day): 0.11 ± 0.7 sm^2; Volume of a hemophthalmia (traumatic hemophthalmia; 14th day): 0.15 ± 0.2 sm^3; Efficiency on resorption of traumatic hemophthalmia (traumatic hemophthalmia; conclusion in words): positive effect on the resorptive processes in a vitreous body; also recorded: much higher in comparison with emoxipin; Concentration of TBK-active products ([3]; radiation time 0 min): 1.3 nmol/mg lipid; Inhibition ([3]; radiation time 0 min): 0%; Concentration of TBK-active products ([3]; radiation time 20 min): 2.42 nmol/mg lipid; Inhibition ([3]; radiation time 20 min): 20%; Concentration of TBK-active products ([3]; radiation time 40 min): 2.53 nmol/mg lipid; Inhibition ([3]; radiation time 40 min): 28%; Concentration of TBK-active products ([3]; radiation time 60 min): 2.85 nmol/mg lipid; Inhibition ([3]; radiation time 60 min): 40%; Concentration of TBK-active products ([3]; radiation time 90 min): 3.28 nmol/mg lipid; Inhibition ([3]; radiation time 90 min): 40%; Inhibiting / protective effect regarding phototoxic action of lipofuscin granules [3]: active inhibitor; Inhibiting / protective effect regarding phototoxic action of lipofuscin granules ([3]; listed as I): protective effect
